Publication PMC6332165, “Study of the Relationships between the Structure, Lipophilicity and Biological Activity of Some Thiazolyl-carbonyl-thiosemicarbazides and Thiazolyl-azoles” (Molecules, 2015)

Columns and labels:
[1] = system: turpentine oil-induced inflammation; parameters: method as in PMID 23504664; Leukocytes (L, leukocytes count):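 lower leukocyte count means stronger anti-inflammatory effect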; conditions: mean ± SD; cited from earlier work
phagocytes = system: phagocytes; parameters: method as in PMID 23504664; conditions: turpentine oil-induced inflammation, mean ± SD; cited from earlier work
oxidative stress = system: oxidative stress; parameters: method as in PMID 23504664; conditions: turpentine oil-induced inflammation, mean ± SD; cited from earlier work
[2] = system: nitric oxide (NO) synthesis; parameters: method as in PMID 23504664; unit not given here; conditions: turpentine oil-induced inflammation, mean ± SD; cited from earlier work
[3] = Lipophilicity by reversed-phase thin-layer chromatography (RP-TLC), isopropanol-water mobile phase; assay type: physicochemical; conditions: RP-18F254s TLC, iso-propanol-water 45-65% (v/v); for RM0 (lipophilicity estimation parameter, intercept of RM = RM0 + bC): extrapolated to pure water
Procedure: Some of the parameters resulting from a RP-TLC may be associated to the lipophilic character of the analytes. The retention parameters (RM) are calculated by means of well-known Batte-Smith and Westall Equation (1): RM = log (1/RF − 1) (1)
Generally, the RM values determined by RP-TLC are linearly dependent on the concentration of the organic modifier (C) in the mobile phase Equation (2): RM = RM0 + bC (2) where b and RM0 are, respectively, the slope and the intercept of Equation (2). […] Additionally, it has been stated that not only the RM0, but also the slope, b, as a characteristic of the specific hydrophobic surface area of the compounds, can be used as an estimation of lipophilicity. The advantages of TLC methods consist in the small quantity of compounds needed for the determination, and the rapidity and simplicity of the method. Also, they are inexpensive, rapid and easy to perform.
Chromatography was performed on 20 × 20 cm RP-18F254s TLC precoated silica plates (Merck; Darmstadt, Germany). Solutions (1 mg/mL) of the tested compounds were prepared in iso-propanol, and 3 μL aliquots were spotted in duplicate on the plates by hand, 10 mm from the bottom edge and 20 mm apart. The mobile phases were composed of the iso-propanol-water binary mixtures, with a varying content of organic modifier between 45% and 65% (v/v) in 5% increments, as the study compounds differed considerably in their retention. Chromatography was performed in a normal developing chamber at room temperature, the developing distance being 10 cm. The chromatography chamber was saturated with the mobile phase for 30 min before use. After the development (30–60 min), the plates were air dried at room temperature and examined under a UV lamp (λ = 254 nm), and the RF (retardation factor) values were measured manually by a digital caliper. The experiments were performed in triplicate.

Structure (SMILES) | b (slope of RM = RM0 + bC, specific hydrophobic surface area) [3] | RM0 (lipophilicity estimation parameter, intercept of RM = RM0 + bC) [3] | Leukocytes (L, leukocytes count) [1] | PMN (polymorphonuclear leukocytes, differential leucocyte count) [1] [%] | PA (phagocytic activity) (phagocytes) | PI (phagocytosis index) (phagocytes) [%] | OSI (oxidative stress index) (oxidative stress) | TAR (total antioxidant response) (oxidative stress) | TOS (total oxidative status) (oxidative stress) | NO (nitric oxide synthesis) [2]
Cc1nc(-c2ccccc2)sc1C(=O)NNC(=S)Nc1ccccc1 [Th-1] | −2.627 | 1.369 | 5587.5 ± 455 | 60.4 ± 4.1 | 18.5 ± 1.8 | 21.5 ± 4.6 | 4.66 ± 2.2 | 1.108 ± 0.003 | 51.622 ± 6.2 | 50.479 ± 5.7
Cc1ccc(-c2nc(C)c(C(=O)NNC(=S)Nc3ccccc3)s2)cc1 [Th-2] | −2.853 | 1.595 | 6543 ± 271 | 60.6 ± 3.1 | 22.5 ± 2.8 | 21.5 ± 2.8 | 5.76 ± 5.3 | 1.099 ± 0.003 | 63.265 ± 5.4 | 51.827 ± 6.3
Cc1nc(-c2ccc(Br)cc2)sc1C(=O)NNC(=S)Nc1ccccc1 [Th-3] | −2.739 | 1.600 | 4987 ± 133 | 63.6 ± 3.9 | 31 ± 1.8 | 21.5 ± 0.9 | 3.62 ± 2.9 | 1.095 ± 0.003 | 39.601 ± 7.9 | 52.838 ± 8.9
CNC(=S)NNC(=O)c1sc(-c2ccccc2)nc1C [Th-4] | −2.355 | 0.986 | 12,218.8 ± 1341 | 82.8 ± 4.1 | 29 ± 1.8 | 22.5 ± 3.5 | 4.49 ± 3.6 | 1.109 ± 0.006 | 49.823 ± 3.6 | 47.501 ± 2.8
CNC(=S)NNC(=O)c1sc(-c2ccc(C)cc2)nc1C [Th-5] | −2.502 | 1.161 | 11,633.3 ± 154 | 59.8 ± 3.6 | 22.5 ± 0.9 | 19.5 ± 2.3 | 4.7 ± 3.1 | 1.096 ± 0.001 | 51.557 ± 17.1 | 47.024 ± 8.9
CNC(=S)NNC(=O)c1sc(-c2ccc(Br)cc2)nc1C [Th-6] | −2.740 | 1.398 | 6056.25 ± 862 | 70.4 ± 2.9 | 18 ± 1.5 | 13 ± 3.2 | 3.93 ± 2.6 | 1.097 ± 0.006 | 43.108 ± 5.6 | 50.591 ± 9.1
C=CCNC(=S)NNC(=O)c1sc(-c2ccccc2)nc1C [Th-7] | −2.484 | 1.195 | 6356.25 ± 66 | 73.2 ± 4.0 | 53.5 ± 3.5 | 20.5 ± 0.9 | 3.98 ± 3.8 | 1.107 ± 0.003 | 44.073 ± 3.8 | 54.355 ± 6.2
C=CCNC(=S)NNC(=O)c1sc(-c2ccc(C)cc2)nc1C [Th-8] | −2.685 | 1.398 | 5718.75 ± 104 | 66.6 ± 1.0 | 21 ± 1.1 | 21.5 ± 0.9 | 5.03 ± 4.1 | 1.107 ± 0.002 | 55.664 ± 4.2 | 48.793 ± 5.5

More lines, main results first:

b (slope of RM = RM0 + bC, specific hydrophobic surface area) [3] | RM0 (lipophilicity estimation parameter, intercept of RM = RM0 + bC) [3] | Structure (SMILES) | Leukocytes (L, leukocytes count) [1] | PMN (polymorphonuclear leukocytes, differential leucocyte count) [1] [%] | PA (phagocytic activity) (phagocytes) | PI (phagocytosis index) (phagocytes) [%] | OSI (oxidative stress index) (oxidative stress) | TAR (total antioxidant response) (oxidative stress) | TOS (total oxidative status) (oxidative stress) | NO (nitric oxide synthesis) [2]
−2.630 | 1.479 | Cc1nc(-c2ccccc2)sc1-c1nnc(S)n1-c1ccccc1 [Th-9] | 9000 ± 428 | 67.4 ± 3.0 | 20.5 ± 0.9 | 21 ± 7.0 | 6.25 ± 5.2 | 1.101 ± 0.001 | 68.780 ± 16.2 | 65.479 ± 4.8
−2.948 | 1.754 | Cc1ccc(-c2nc(C)c(-c3nnc(S)n3-c3ccccc3)s2)cc1 [Th-10] | 5606.25 ± 154 | 61.2 ± 3.4 | 23 ± 1.1 | 20.5 ± 0.9 | 4.95 ± 5.4 | 1.095 ± 0.003 | 54.164 ± 5.4 | 65.142 ± 5.3
−3.133 | 2.020 | Cc1nc(-c2ccc(Br)cc2)sc1-c1nnc(S)n1-c1ccccc1 [Th-11] | 11,137.5 ± 483 | 86.4 ± 2.6 | 19.75 ± 2.4 | 21 ± 1.1 | 6.08 ± 4.9 | 1.092 ± 0.003 | 66.394 ± 8.9 | 66.799 ± 5.9
−2.463 | 1.305 | Cc1nc(-c2ccccc2)sc1-c1nnc(S)n1C [Th-12] | 8456.25 ± 565 | 78.6 ± 1.0 | 20 ± 1.5 | 22.5 ± 3.5 | 8.27 ± 4.2 | 1.095 ± 0.004 | 90.592 ± 4.2 | 70.029 ± 6.4
−2.672 | 1.565 | Cc1ccc(-c2nc(C)c(-c3nnc(S)n3C)s2)cc1 [Th-13] | 10,172 ± 331 | 80.8 ± 3.0 | 27.5 ± 0.9 | 25.5 ± 2.8 | 4.63 ± 3.6 | 1.1 ± 0.012 | 50.886 ± 5.6 | 75.451 ± 6.9
−2.659 | 1.630 | Cc1nc(-c2ccc(Br)cc2)sc1-c1nnc(S)n1C [Th-14] | 10,172 ± 520 | 75.4 ± 4.5 | 23.5 ± 0.9 | 28 ± 2.1 | 6.1 ± 4.7 | 1.097 ± 0.006 | 66.876 ± 9.7 | 86.04 ± 2.9
−2.905 | 1.664 | C=CCn1c(S)nnc1-c1sc(-c2ccccc2)nc1C [Th-15] | 9982.5 ± 81 | 77.4 ± 5.1 | 29 ± 3.2 | 24 ± 4.3 | 6.32 ± 4.4 | 1.094 ± 0.006 | 69.171 ± 4.4 | 71.630 ± 5.9
